Results as given in publication PMC11855827, “High-Throughput Screening of Five Compound Libraries for Anthelmintic Activity and Toxicity Leads to the Discovery of Two Flavonoid Compounds” (International Journal of Molecular Sciences, 2025).
Values joined by “and” are separate entries in the source; they are usually repeats but may differ in a detail not shown here. Equal values may be shown once. Read-outs that look alike come from different tables or passages of the source.

Tested on: C. elegans
[1] = Table S2, C. elegans SS assay, 110 μM, 0 h, averages of 4 data points
[2] = Table S2, C. elegans SS assay, 110 μM, 24 h, averages of 4 data points

Structure (SMILES) | Percentage of motility inhibition 0 h [1] | Percentage of motility inhibition 24 h [2] | Percentage of motility inhibition 0 h (110 µM) | Percentage of motility inhibition 24 h (110 µM)
COc1ccc([C@@H]2CC(=O)c3c(O)cc(O[C@@H]4O[C@H](CO[C@@H]5O[C@@H](C)[C@H](O)[C@@H](O)[C@H]5O)[C@@H](O)[C@H](O)[C@H]4O)cc3O2)cc1 [Didymin] | 1% | 6% | – | –
CCN(CC)C(=O)N1CCN(C)CC1.O=C(O)CC(O)(CC(=O)O)C(=O)O [Diethylcarbamazine (citrate)] | 13% | 17% | – | –
CC1=C[C@H]2[C@@H](CC1)[C@H](C)CC[C@H]2[C@@H](C)C(=O)O [Dihydroartemisinic acid] | 0% | 15% | – | –
CC(=O)OC(C)(C)CCC(=O)[C@](C)(O)[C@H]1[C@H](O)C[C@@]2(C)[C@@H]3CC=C4[C@@H](C[C@H](O)C(=O)C4(C)C)[C@]3(C)C(=O)C[C@]12C [Dihydrocucurbitacin B] | 0% | 11% | – | –
CCCCCCCCCCCCCc1cc(=O)c2ccccc2n1C [Dihydroevocarpine] | 3% | 0% | – | –
O[C@H]1[C@H]2c3cc4c(cc3CN3CC[C@H](C[C@@H]1O)[C@H]23)OCO4 [Dihydrolycorine] | 0% | 0% | – | –
CN[C@@H]1[C@H](O[C@H]2[C@H](O[C@H]3[C@H](O)[C@@H](O)[C@H](NC(=N)N)[C@@H](O)[C@@H]3NC(=N)N)O[C@@H](C)[C@]2(O)CO)O[C@@H](CO)[C@H](O)[C@H]1O.CN[C@@H]1[C@H](O[C@H]2[C@H](O[C@H]3[C@H](O)[C@@H](O)[C@H](NC(=N)N)[C@@H](O)[C@@H]3NC(=N)N)O[C@@H](C)[C@]2(O)CO)O[C@@H](CO)[C@H](O)[C@H]1O.O=S(=O)(O)O.O=S(=O)(O)O.O=S(=O)(O)O [Dihydrostreptomycin (sulfate)] | 0% | 0% | – | –
Br.CO[C@H]1CC=C2CCN3CCC4=C(CC(=O)OC4)[C@]23C1 [Dihydro‐β‐er ythroidine (hydrobromide)] | 7% | 6% | – | –
COc1ccc(-c2cc(=O)c3c(O)cc(O[C@@H]4O[C@H](C(=O)O)[C@@H](O)[C@H](O)[C@H]4O)cc3o2)cc1O [DiosMetin 7‐O‐β‐D‐Glucuronide] | 4% | 21% | – | –
C[C@@]12C[C@H](c3ccoc3)O[C@@]13C[C@H](OC3=O)[C@H]1[C@H]2C[C@@H]2C[C@H]1C(=O)O2 [Diosbulbin B] | 0% | 31% | – | –
COc1ccc(-c2cc(=O)c3c(O)cc(O[C@@H]4O[C@H](CO)[C@@H](O)[C@H](O)[C@H]4O)cc3o2)cc1O [Diosmetin‐7‐O‐β‐D‐glucopyranoside] | 53% | 10% | – | –
COc1ccc(-c2cc(=O)c3c(O)cc(O[C@@H]4O[C@H](CO[C@@H]5O[C@@H](C)[C@H](O)[C@@H](O)[C@H]5O)[C@@H](O)[C@H](O)[C@H]4O)cc3o2)cc1O [Diosmin] | – | 10% and 4% | – | –
Cn1c(=O)c2c(ncn2CC(O)CO)n(C)c1=O (stereo not drawn) [Diphylline] | 66% | 31% | – | –
CC1(C)[C@@H](O[C@H]2O[C@H](C(=O)[O-])[C@@H](O)[C@H](O)[C@H]2O[C@@H]2O[C@H](C(=O)[O-])[C@@H](O)[C@H](O)[C@H]2O)CC[C@]2(C)[C@H]3C(=O)C=C4[C@@H]5C[C@@](C)(C(=O)O)CC[C@]5(C)CC[C@@]4(C)[C@]3(C)CC[C@@H]12.[K+].[K+] [Dipotassium glycyrrhizinate] | 17% and 15% | 3% | – | –
C[C@@H]1O[C@@H](O[C@H]2[C@H](O[C@H]3CC[C@@]4(C)[C@@H](CC[C@]5(C)[C@@H]4CC=C4[C@@H]6CC(C)(C)CC[C@]6(C(=O)O[C@@H]6O[C@H](CO[C@@H]7O[C@H](CO)[C@@H](O)[C@H](O)[C@H]7O)[C@@H](O)[C@H](O)[C@H]6O)CC[C@]45C)[C@]3(C)CO)OC[C@H](O)[C@@H]2O)[C@H](O)[C@H](O)[C@H]1O [Dipsacoside B] | – | – | 7% | 5%
O=C([O-])CCC(=O)[O-].[Na+].[Na+] [Disodium succinate] | 19% | 1% | – | –
C[C@@H]1CCO[C@H]2Cn3cc(C(=O)NCc4ccc(F)cc4F)c(=O)c([O-])c3C(=O)N12.[Na+] [Dolutegravir (sodium)] | 0% | 17% | – | –
CO[C@H]1C[C@H](O[C@H]2[C@H](C)O[C@@H](O[C@@H]3/C(C)=C/C[C@@H]4C[C@@H](C[C@]5(C=C[C@H](C)[C@@H](C6CCCCC6)O5)O4)OC(=O)[C@@H]4C=C(C)[C@@H](O)[C@H]5OC/C(=C\C=C\[C@@H]3C)[C@]54O)C[C@@H]2OC)O[C@@H](C)[C@@H]1O [Doramectin] | 66% | 49% | – | –

Structure (SMILES) | Percentage of motility inhibition 0 h [1] | Percentage of motility inhibition 24 h [2] | Percentage of motility inhibition 0 h (110 µM) | Percentage of motility inhibition 24 h (110 µM)
C[C@@H](O)[C@H]1C(=O)N2C(C(=O)O)=C(S[C@@H]3CN[C@H](CNS(N)(=O)=O)C3)[C@H](C)[C@H]12.O [Doripenem (monohydrate)] | 15% | 7% | – | –
COc1cccc2c1C(=O)c1c(O)c3c(c(O)c1C2=O)C[C@@](O)(C(=O)CO)C[C@@H]3O[C@H]1C[C@H](N)[C@H](O)[C@H](C)O1.Cl [Doxorubicin (hydrochloride)] | 13% | 4% | – | –
C[C@@H]1NC(=O)N[C@@H]1CCCCCC(=O)O [D‐Desthiobiotin] | 18% | 4% | – | –
COc1cc2c(cc1OC)[C@H]1Cc3ccc(OC)c(OC)c3CN1CC2 [D‐Tetrahydropalmatine] | 0% | 0% | – | –
C[C@H]1CC[C@H]2[C@H](C)[C@H]3CC[C@@H]4[C@@H](C[C@H]5[C@H]4CC(=O)[C@H]4C[C@@H](O)CC[C@@]45C)[C@@H]3CN2C1 [Ebeiedinone] | 0% | 4% | – | –
CC1(C)CC[C@]2(C(=O)O[C@@H]3O[C@H](CO)[C@@H](O)[C@H](O)[C@H]3O)[C@H](O)C[C@]3(C)C(=CC[C@@H]4[C@@]5(C)CC[C@H](O)C(C)(C)[C@@H]5CC[C@]43C)[C@@H]2C1 [Echinocystic acid 28-O-β-D-glucoside] | 36% | 41% | – | –
CC1(C)CC[C@]2(C(=O)O[C@@H]3O[C@H](CO)[C@@H](O)[C@H](O)[C@H]3O)[C@H](O)C[C@]3(C)C(=CC[C@@H]4[C@@]5(C)CC[C@H](O[C@@H]6O[C@H](CO)[C@@H](O)[C@H](O)[C@H]6O)C(C)(C)[C@@H]5CC[C@]43C)[C@@H]2C1 [Eclalbasaponin I] | 35% | 35% | – | –
Clc1ccc(COC(Cn2ccnc2)c2ccc(Cl)cc2Cl)cc1.O=[N+]([O-])O (stereo not drawn) [Econazole (nitrate)] | 35% | 13% | – | –
C[C@H]1CC[C@@H]2N(C1)C[C@H]1[C@@H]3C[C@H]4[C@@H](CC(=O)[C@H]5C[C@@H](O[C@@H]6O[C@H](CO)[C@@H](O)[C@H](O)[C@H]6O)CC[C@@]54C)[C@@H]3CC[C@@H]1[C@]2(C)O [Edpetiline] | 11% | 56% | – | –
Cc1c2ccncc2c(C)c2c1[nH]c1ccccc12.Cl [Ellipticine (hydrochloride)] | 9% | 11% | – | –
CC[C@H]1CN2CCc3cc(OC)c(OC)cc3[C@@H]2C[C@@H]1C[C@H]1NCCc2cc(OC)c(OC)cc21.Cl.Cl.O [Emetine (dihydrochloride hydrate)] | 52% | 7% | – | –
CC(C)C[C@H]1C(=O)O[C@H](Cc2ccc(N3CCOCC3)cc2)C(=O)N(C)[C@@H](CC(C)C)C(=O)O[C@H](C)C(=O)N(C)[C@@H](CC(C)C)C(=O)O[C@H](Cc2ccc(N3CCOCC3)cc2)C(=O)N(C)[C@@H](CC(C)C)C(=O)O[C@H](C)C(=O)N1C [Emodepside] | 69% | 47% | – | –
CCn1cc(C(=O)O)c(=O)c2cc(F)c(N3CCNCC3)nc21 [Enoxacin (hydrate)] | 17% | 0% | – | –
CS/C=C/C(=O)NCCO[C@@H]1O[C@H](CO)[C@@H](O)[C@H](O)[C@H]1O [Entadamide‐A‐β‐D‐glucopyranoside] | 24% | 13% | – | –
C=C1[C@H](CO)[C@@H](O)C[C@@H]1n1cnc2c(=O)[nH]c(N)nc21.O [Entecavir (monohydrate)] | 18% | 3% | – | –
COc1cc2c(cc1OC)-c1cc3ccc4c(c3c[n+]1CC2)OCO4.[Cl-] [Epiberberine (chloride)] | 22% | 8% | – | –
C=CC1CNC(=S)O1 (stereo not drawn) [Epigoitrin] | 6% | 0% | – | –
